Data on one compound can be found in patent US20060148776A1, “Drug formulations having long and medium chain triglycerides” (Conforma Therapeutics Corporation, priority 2003, published 2006).

Data set [1] is described as follows: Characterisation and storage stability of 17-AAG emulsion (droplet size, drug load, degradants). The data set is classed as physicochemical.
Method: EDTA (disodium, dihydrate, USP), sucrose, and water for injection (WFI) are weighed into a 5 L polypropylene beaker and stirred until the solids are dissolved. The aqueous phase is then added to the oil phase and thorough mixing effected using a high-speed emulsifier equipped with an emulsion head at 5000 RPM until the oil adhering to the surface is “stripped off.” Shearing rate is then increased to 10000 RPM for 2-5 minutes to obtain a uniform primary emulsion. Laser light scattering (LLS) may be used to measure the average droplet size, and the solution may further be checked, e.g., under an optical microscope to determine the relative presence or absence of crystals and solids.
The emulsion pH is adjusted to 6.0±0.2 with 0.2N NaOH. The primary emulsion is then passed through a Model 11OS microfluidizer (Microfluidics Inc., Newton, Mass., USA) operating at static pressure of about 110 psi (operating pressure of 60-95 psi) with a 75-micron emulsion interaction chamber (F20Y) for 6-8 passages until the average droplet size is ≦190 nm. LLS may be used following the individual passages to evaluate progress. The solution may further be checked for the presence of crystals using polarized light under an optical microscope.
The conditions of data set [2]: daily 1-hour infusion for 5 days every three weeks; cited from earlier work.

SMILES strings stand for the structures.

Turning to `C=CCNC1=C2CC(C)CC(OC)C(O)C(C)/C=C(\C)C(OC(N)=O)C(OC)/C=C\C=C(/C)C(=O)NC(=CC1=O)C2=O` (stereo not shown) [Compound 17-AAG, 17-allylaminogeldanamycin], in data set [1] (oil phase alone), the “concentration achieved in the oil phase alone” value lay in the range of 20000 to 30000 µg/mL. Also, the “time until degradants of 17-AAG are seen” value in data set [1] (stored at 40° C.) is given as “approximately 2 weeks”. Also, the concentration achieved overall in data set [1] (whole emulsion) was not above 3000 µg/mL. In addition, the “maximum tolerated dose (MTD)” value in data set [2] is 40 mg/m^2.
